According to paper PMC8308672, “Bioactive Compounds from Euphorbia usambarica Pax. with HIV-1 Latency Reversal Activity” (Pharmaceuticals, 2021):

Columns and labels:
[1] = tested on: latent HIV-1; test: HIV-1 latency reversal activity, GFP expression of J-Lat 10.6 cells; type: cell-based; details: for HIV-1 latency reversal activity of isolated compounds (in words): J-lat 10.6 cells, GFP expression, tested at 1, 10 and 100 μM; for EC50: Human immunodeficiency virus 1, J-Lat 10.6, read-out: latency EC50, J-Lat 10.6 cells, HIV-1 reactivation dose-response
Experimental: (§1) Figure 1 HIV-1 latency reversal activity of methanolic crude extract (EU), partitioned n-hexane (EU-H), dichloromethane (EU-C), ethyl acetate (EU-E), and water-soluble residue (EU-W) phases. (A) dose-response experiments conducted with Jurkat T cells that were latently infected with full-length HIV-1 reporter construct (J-Lat 10.6 cells), HIV-1 reactivation quantified as % of positive control (PMA); (B) cell viability of each sample at 10, 50, 100, 500, and 1000 μg/mL.
(§2) Jurkat cells with a full-length integrated HIV-1 provirus that have been modified to contain a GFP coding region in place of the env gene (J-lat 10.6 cells) were used for HIV-1 anti-latency activity, cytotoxicity, and cellular activation testing. All 31 compounds were tested at 1, 10, and 100 μM. […] These compounds were further tested at additional concentrations to determine dose response and toxicity curves (Figure 5A–F). Cell viability for all isolated compounds is presented in Figure S106 in the supplementary material.
The HIV-1-infected Jurkat T cell line (J-Lat 10.6) was obtained in January 2019 from the NIH/ATCC HIV-1 Reagent Program (www.hivreagentprogram.org) and cultured in RPMI-based media supplemented with 10% fetal calf serum, 1% penicillin, and 1% streptomycin.
(§3) After in vitro culture, J-lat cells were washed with phosphate-buffered saline (1× PBS) prior to staining with 0.1 µL fixable viability dye Live/Dead Aqua (Cat L34957, www.thermofisher.com) per 10^5 cells for 30 min at 4 °C. Simultaneously, J-lat cells were also stained with antibodies against CD69 conjugated to an APC fluorophore (APC anti-human CD69 antibody, biolegend.com). Cells were then washed and re-suspended in 1× PBS prior to flow cytometry acquisition evaluating for cellular viability, green fluorescent protein (GFP) expression, and CD69 expression. Flow cytometry was performed with a BD FACSCelesta or FACSCanoto flow cytometer with FACSDiva acquisition software (Becton Dickinson, Mountain View, CA) prior to analysis with FlowJo (TreeStar Inc., Ashland, OR, USA).
Isolated compounds were resuspended in dimethyl sulfoxide (DMSO; Sigma-Aldrich, Burlington, USA), at a concentration of 10 mM, and diluted with PBS, and tested with J-lat 10.6 cells at concentrations of 100, 10, and 1 μM. J-lat 10.6 cells were tested with compounds at a concentration of 2.5 × 10^5 cells/mL. We performed a minimum of three replicates of each condition for all experiments. Negative controls contained 1% DMSO to account for any effect of DMSO in the highest dilution of compounds.

[2] = tested on: PKC; test: Latency reversal activity in the presence and absence of pan-PKC inhibitor Gö6983; type: cell-based, human; details: presence versus absence of pan-PKC inhibitor Gö6983
Text: (§4) In order to determine whether our active compounds were acting through PKC, we evaluated the latency reversal activity of each of these compounds in the presence and absence of a pan-PKC inhibitor, Gö6983 (Figure 7).
Figure 7 Effect of PKC inhibition on HIV-1 reactivation of compounds 13–14, 21, 26, and 27.

[3] = tested on: CD69; test: CD69 expression on J-lat cells (flow cytometry); type: cell-based, human
Experimental: as §4, §3

[4] = tested on: latent HIV; design: method as in PMID 30031972; details: read-out: EC50, reactivation of latent HIV; cited from earlier work
[5] = in vitro; type: cell-based, human; details: human, J-Lat 10.6 cells; read-out: cellular CC50
Experimental: as §1, §2, §3
(§5) Isolated compounds were resuspended in dimethyl sulfoxide (DMSO; Sigma-Aldrich, Burlington, USA), at a concentration of 10 mM, and diluted with PBS, and tested with J-lat 10.6 cells at concentrations of 100, 10, and 1 μM. J-lat 10.6 cells were tested with compounds at a concentration of 2.5 × 10^5 cells/mL. […]

[6] = tested on: J-Lat 10.6 cells; test: in vitro; type: cell-based, human; details: read-out: cellular CC50
Experimental: as §1, §2, §3, §5

[7] = tested on: HIV-1; details: read-out: EC50, anti-HIV-1 activity; cited from earlier work
[8] = tested on: HIV-1 latency; design: method as in PMID 30944245; details: through the PKC pathway; cited from earlier work

Molecule: COc1cc(C2OCC3C(c4cc(OC)c(O)c(OC)c4)OCC23)cc(OC)c1O (single isomer, unassigned; (+)) [Compound 26, (+)-syringaresinol]
- HIV-1 latency reversal activity of isolated compounds (in words) [1]: showed HIV-1 latency reversal activity
- latency reversal activity when PKC was inhibited (in words) [2]: did not show a significant reduction
- CD69 expression (hallmark of PKC activation) (in words) [3]: did not increase CD69 expression

Molecule: CC1=C[C@]23C(=O)[C@@H](C=C(CO)[C@@H](O)[C@]2(O)[C@H]1OC(=O)c1ccc2ccccc2c1)[C@H]1[C@@H](C[C@H]3C)C1(C)C [3-(2-naphthoyl)ingenol]
- EC50 [4]: 0.0024 µM

Molecule: C/C=C(/C)C(=O)O[C@H]1C(C)=C[C@]23C(=O)[C@@H](C=C(CO)[C@@H](O)[C@]12O)[C@H]1[C@@H](C[C@H]3C)C1(C)C [3-angeloylingenol]
- EC50 [4]: 0.0042 µM

Molecule: CC(=O)O[C@@]12[C@H](OC(=O)c3ccccc3)[C@@H](C)[C@]3(O)[C@@H]4C=C(C)C(=O)C4=CC(C)=C[C@H]3[C@@H]1C2(C)C [Compound 12, 12-O-benzoyl-13-acetoxy-4,20-dideoxyphorbol-4-ene]
- HIV-1 latency reversal activity of isolated compounds (in words) [1]: showed HIV-1 latency reversal activity
- latency reversal activity when PKC was inhibited (in words) [2]: reduced efficacy

Molecule: CC(=O)O[C@@]12[C@H](OC(=O)c3ccccc3)[C@@H](C)[C@]3(O)[C@@H]4C=C(C)C(=O)[C@@H]4CC(CO)=C[C@H]3[C@@H]1C2(C)C [Compound 13, crotignoid K]
- EC50 [1]: 3.75 µM
- HIV-1 latency reversal activity of isolated compounds (in words) [1]: showed HIV-1 latency reversal activity
- latency reversal activity when PKC was inhibited (in words) [2]: reduced efficacy
- CC50 at 24 h [5]: 40 µM

Molecule: CC(=O)O[C@@]12[C@H](OC(=O)c3ccccc3)[C@@H](C)[C@]3(O)[C@@H]4C=C(C)C(=O)[C@H]4CC(CO)=C[C@H]3[C@@H]1C2(C)C [Compound 14, 4β-Crotignoid K]
- EC50 [1]: 0.015 µM
- fold difference in selectivity index (CC50/EC50), 14 versus 13 ([1]; J-Lat 10.6 cells, compared to crotignoid K (13)): ~ 1000 fold
- HIV-1 latency reversal activity of isolated compounds (in words) [1]: showed HIV-1 latency reversal activity
- latency reversal activity when PKC was inhibited (in words) [2]: reduced efficacy
- CC50 at 24 h [5]: 160 µM
- CC50 [6]: > 160 µM

Molecule: CC1=C2C=C3CC[C@@H]4C(C)(C)C(=O)CC[C@@]4(C)[C@@H]3C[C@H]2OC1=O [Compound 21, helioscopinolide E]
- HIV-1 latency reversal activity of isolated compounds (in words) [1]: showed HIV-1 latency reversal activity
- latency reversal activity when PKC was inhibited (in words) [2]: reduced efficacy

Molecule: COc1cc([C@H]2Oc3c(OC)cc(/C=C/COC(C)=O)cc3[C@@H]2COC(C)=O)ccc1O [Compound 27, dimeric coniferyl acetate]
- HIV-1 latency reversal activity of isolated compounds (in words) [1]: showed HIV-1 latency reversal activity
- latency reversal activity when PKC was inhibited (in words) [2]: did not show a significant reduction
- CD69 expression (hallmark of PKC activation) (in words) [3]: did not increase CD69 expression

Molecule: CC1(C)OC[C@@]2(C[C@]34CC[C@H]2C[C@H]3[C@]2(C)CC[C@H](O)C(C)(C)[C@H]2CC4)O1 [euphorneroid D]
- EC50 [7]: 34 µM

Molecule: CC1=C[C@]23C(=O)[C@@H](C=C(CO)[C@@H](O)[C@]2(O)[C@H]1O)[C@H]1[C@@H](C[C@H]3C)C1(C)C [ingenol]
- reactivation of HIV-1 latency (in words) [8]: significant effect in the reactivation of HIV-1 latency

Molecule: ent-3-oxoatisan-16α,17-acetonide
- EC50 [7]: 24 µM
